Earlier results, collected in patent US20220347399A1, “SYSTEMS AND METHODS OF USING AN ULTRASONIC FOGGER TO DISTRIBUTE AN ANTISEPTIC SOLUTION” (Wonder Spray, LLC, priority 2021, published 2022).

Experiments:
E. coli [1] = conditions: 50 mM (2.6 ppm) HOCl, within 5 minutes
E. coli [2] = conditions: 50 mM (2.6 ppm) HOCl, within 5 minutes; remark: listed apart in the source
f2 RNA = conditions: f2 capsid proteins could still adsorb to the host
[3] = inhalation of vaporized HOCl

OCl [HOCl, Hypochlorous acid]
inhibition of the growth of E. coli (E. coli [1]): completely inhibited
inhibition of DNA synthesis (E. coli [2]): ninety-six
inactivation of naked f2 RNA versus RNA in intact phage (f2 RNA): inactivated naked f2 RNA at the same rate as RNA in intact phage
adverse effects on inhaling the vaporized form [3]: no adverse effects
